Results published in patent US5229413A, “Compositions containing indole-2-carboxylate compounds for treatment of CNS disorders” (G. D. Searle & Co., priority 1992, dated 1993).
Where two headings read alike, the source gives them in different places.

Assays:
[1] = system: Cerebellar cGMP; assay: Assay for effect on cGMP (cerebellum, intracisternal injection); format: in vivo, Swiss Hausche mice; conditions: D-Serine (100 μg) alone, ± SEM
Description: Male Swiss Hausche mice (25-30 g) were injected intracisternally (i.c.t.) with glycine agonists 10 minutes prior to sacrifice by focussed microwave irradiation. Compounds of the invention were injected intracisternally 2 minutes prior to the agonist. For intracisternal injections, al agonists were dissolved in HCl and diluted with isotonic saline prior to adjustment of the pH to between 6 and 7 with NaOH. The compounds of the invention were dissolved in isotonic saline and all compounds were administered in a volume of 5 μl.
Hydrochloric acid in extracts of the cerebellum were freeze-dried for assay of cGMP with a commercial RIA kit (NEN). Protein determinations (Lowery) and statistics (Dunett's t-test) were performed as described previously [P. L. Wcod et al., Neurochem., 19, 975-982 (1980)]. Groups consisted of 7-10 mice.

[2] = molecular target: T1, strychnineinsensitive glycine recognition site (NMDA receptor-ion channel complex) (Rattus norvegicus, UniProt P35439); assay: Glycine binding assay, [3H]glycine, synaptic plasma membranes; conditions: 10 nM [3H]glycine, pH 7.4, rat forebrain SPM; read-out: Ki apparent, Gly
T1 construct: Synaptic plasma membranes (SPM) were prepared from rat forebrain; from tissue; host or cells: rat forebrain synaptic plasma membranes
Description: Synaptic plasma membranes (SPM) were prepared from rat forebrain and stored as previously described [J. B. Monahan and J. Michel, J. Neurochem, 48, 1699-1708 (1987)]. Frozen membranes were thawed and diluted 1:20 with 0.04% triton X-100 in 50 mM tris/acetate (pH 7.4). Following incubation at 37° C. for 30 min., the SPM were collected by centrifugation at 95,000 X g for 15 min. The pellet was resuspended in 50 mM tris/acetate (pH 7.4, triton-free) and hand-homogenized five times. The membranes were again centrifuged as above. The pellet was washed two additional times with 50 mM tris/acetate (without homogenization) and centrifuged. The final pellet was resuspended with homogenization in 50 mM tris/acetate.
In the general receptor binding assay procedure, 10 nM [^3 H]glycine was added to the appropriate concentration of the test compounds and the assay initiated by the addition of 0.2-0.4 mg of ice cold SPM. The assay, which was done in 1.5 ml centrifuge tubes, was adjusted to a total volume of 1.0 ml with all additions being made in 50 mM tris/ acetate, pH 7.4 at 4° C. After a 10 minute incubation at 2° C., the samples were centrifuged for 15 min. at 12,000 g (4° C.) in a Beckman Microfuge 12. The supernatant was aspirated and the tube tip containing the pelleted membranes cut off and agitated in 0.5 ml of Beckman BTS-450 tissue solubilizer for a minimum of 6 hours at room temperature. Beckman MP scintillation cocktail (5 ml) containing 7 ml/liter acetic acid was then added and the samples counted on a Beckman LS 5800 liquid scintillation counter with automatic corrections for quenching and counting efficiency. […] The binding of [^3 H]glycine to the SPM was analyzed using Scatchard and Hill transformations and the Ki for other compounds was determined using logit-log analysis. Calculations and regression analysis were performed using templates developed for Lotus 123 as previously described [Pullan et al, Id.].

[3] = molecular target: N-methyl-D-aspartate (NMDA) receptor site; assay: Glutamate (NMDA) binding assay, L-[3H]glutamate, synaptic plasma membranes; conditions: L-[3H]glutamate 12.5 nM, pH 7.4, 0-4° C.; read-out: Ki apparent, NMDA
Description: The purpose of this assay is to determine the binding affinity of a compound of Formula I for the N-methyl-D-aspartate (NMDA) receptor site. This procedure was carried out as follows:
Synaptic plasma membranes (SPM) were prepared as previously described [Monahan, J. B. and Michel, J., "Identification and Characterization of an N-methyl-D-aspartate-specific L-[^3 H]glutamate Recognition Site in Synaptic Plasma Membranes, J. Neurochem., 48, 1699-1708 (1987)]. The SPM were stored at a concentration of 10-15 mg/ml in 0.32 M sucrose, 0.5 mM EDTA, 1 mM MgSO4, 5 mM Tris/SO4, pH 7.4, under liquid nitrogen. The identity and purity of the subcellular fractions were confirmed by both electron microscopy and marker enzymes. Protein concentrations were determined by using a modification of the method of Lowry [Ohnishi, S. T. and Barr, J. K., "A Simplified Method of Quantitating Proteins Using the Biuret and Phenol Reagents", Anal. Biochem., 86, 193-197 (1978)]. The SPM were thawed at room temperature, diluted twenty-fold with 50 mM Tris/acetate, pH 7.4, incubated at 37° C. for 30 minutes, and centrifuged at 100,000 g for 15 minutes. The dilution, incubation, and centrifugation was repeated a total of three times. This general method involved adding 12.5 nM of the L-[^3 H]glutamate radioligand to the appropriate concentration of the test compound and initiating the assay by the addition of ice cold SPM (0.2-0.45 mg). The binding assays were performed in 1.5 ml centrifuge tubes with the total volume adjusted to 1.0 ml. Additions of test compounds were made in 50 mM Tris/acetate, pH 7.4 and incubations were carried out at 0°-4° C. The incubation time for the NMDA binding assay was 10 minutes. To terminate the incubation, the samples were centrifuged for 15 minutes at 12,000 g and 4° C. in a Beckman Microfuge 12. The supernatant was aspirated and the pelleted membranes dissolved in Beckman Ready-Protein scintillation cocktail and the samples counted on a Beckman LS 5800 or 3801 liquid scintillation counter with automatic corrections for quenching and counting efficiency. Nonspecific binding was defined as the residual binding in the presence of 0.5 mM NMDA and was typically 15-25% of the total binding in the NMDA binding assay. Radioligand binding to the SPM was analyzed using Scatchard and Hill transformations and the Ki values of the compounds determined using logit-log transformations. Calculations and regression analysis were performed using templates developed for Lotus 1, 2, 3 as previously described [Pullan, L. M. "Automated Radioligand Receptor Binding Analysis with Templates for Lotus", Computer Appln. Biosci., 3 131 (1987)]. Binding results are reported in Table II for example compounds of the invention.

[4] = molecular target: T2, NMDA receptor (rat brain receptor expressed in Xenopus oocytes) (Rattus norvegicus, UniProt P35439); assay: Xenopus oocytes injected with rat cortex mRNA, blocking of glycine effects (voltage clamp); format: cell-based; conditions: 100 μM NMDA
T2 construct: PolyA+ RNA (mRNA) was extracted from adult male rat cortex; expressed in transfected cells; host or cells: Xenopus laevis oocytes microinjected with rat cortex poly(A)+ RNA
Description: PolyA+ RNA (mRNA) was extracted from adult male rat cortex using the refined guanidinium thiocyanate method developed by Han et al [J. H. Han et al., Biochemistry, 26, 1617-1625 (1987)] and the oligo (dT) cellulose chromatography procedure of Adiv and Leder [H. Aviv et al., Proc. Nat. Acad. Sci., 69, 1408-1412 (1972)]. Aliquots of mRNA (1.0 mg/ml water) were stored at -20° C.
Gravid adult female Xenopus laevis (Xenopus One, Ann Arbor, Mich. or NASCO, Ft. Atkinson, Wis.) were anaesthetized with 0.2% (w/v) Tricaine (3-amino benzoic acid ethyl ester; Sigma) and subjected to partial ovarectomy. Excised oocytes were then prepared and microinjected [N. W. Kleckner et al, Science 241 835-837 (1988)]. Oocytes were treated for one hour in Barth's solution (88.0 mM NaCl, 1.0 mM KCl, 2.4 mM NaHCO3, 0.41 mM CaCl2, 0.82 mM MgSO4, 10.0 μg/ml penicillin, 100.0 μg/ml streptomycin, 10.0 mM HEPES, pH 7.5) containing 1.5 mg/ml Neutral Protease (Beohringer Mannheim Biochemicals, Grade II). Oocytes were then placed in Barth's solution containing 100.0 mM sucrose and manually defolliculated with fine forceps. Defolliculated oocytes were then microinjected with approximately 50 ng of mRNA in Barth's solution at 16°-18° C.
Oocytes were assayed 2-8 days later for rat brain receptor expression via single electrode voltage. clamp (Axoclamp 2A, Axon Instruments) in a manner similar to that previously described [Kleckner et al, Id.]. […] Drugs were added to the perfusate and inward currents induced by agonist compounds were measured at peak steady state response. […] Antagonist compounds were perfused for a minimum of 3.0 minutes prior to subsequent agonist co-application. Data are expressed as percent maximal response (mean±S.E.M.). Half-maximal responses (EC50 's) and slopes for dose response data were determined from the least squares fit to the logistic regression equation.

[5] = system: NMDA receptor; conditions: cited from earlier work; for reversal of NMDA antagonist activity / blocking effect by glycine: presence of glycine
[6] = system: hippocampal slice; assay: Epileptic hippocampal slice, 0% Mg+2-induced epilepsy; format: cell-based, Sprague-Dawley albino rat; conditions: Rattus norvegicus, 300 μM Compound No. 35, 0% Mg+2
Text: Hippocampal slices (450 μ) were obtained from male Sprague-Dawley albino rats (100-325 g). The method of slice preparation has been detailed elsewhere [A. H. Ganong et al., Brain Res., 273, 170-174 (1983)]. Slices were stored in a humidified interface chamber at room temperature and bathed in artificial cerebrospinal fluid (ACSF) which contained (in mM): NaCl 124.0, KCl 5.0, KH2 PO4 1.0, NaHCOP3 26.4, CaCl2, 2.0, MgSO4 1.5 and D-glucose 10.0, and was equilibrated with 95% 02:5% CO2. When needed for study, slices were placed one at a time in a small submersion chamber maintained at 35° C. where they were continuously perfused at 1.0-2.0 ml/min. Fresh solutions reached the recording chamber within 20 seconds and the perfusate was completely changed over within a minute. Additional oxygen and stirring was provided by an air jet (95% O2 :5% CO2) directed at the surface of the ACSF. Standard electrophysiological techniques were employed. Extracellular recording electrodes were glass micropipettes filled with 2.0 M NaCl and broken back to 2.0 m.OMEGA. resistance. All recording was from the somatic region of CA1. […] Intracellular recording electrodes of 60-100 MQ resistance were filled with 2.5 M KAc. […] The Schaffer collateral/commissural fibers were stimulated with tungsten bipolar stimulating electrodes at a rate of 0.03 Hz. The resulting field EPSP (S/C-CA1 EPSP) and the DC potential were amplified by an Axoprobe 1 amplifier and were continuously monitored on a Tektronix 5111A storage oscilloscope and a Gould 2300 chart recorder with a Gould Waveform storage module. Epileptiform activity was induced by omission of Mg++ ions from the perfusate, which removes the Mg++ mediated voltage-dependent block of the NMDA. receptor [B. Ault et al., J. Physiol., 307, 413-428 (1980)], or by the addition of the GABA antagonist picrotoxin. Drugs were added to the perfusate and zero magnesium refers to solutions which contain no added magnesium. The amplitude of the stimulus evoked primary population spike was used to assess the effects of experimental manipulations on the efficacy of synaptic function.

[7] = IC50, 1.0 μM Gly, 1.0 μM glycine

Structure (SMILES)	Ki [2] [nM]	IC50 [4, 7] [µM]	IC50 ([4]; IC50, 10 μM Gly, 10 μM glycine) [µM]	NMDA antagonist activity [5]	reversal of NMDA antagonist activity / blocking effect by glycine [5]	other results
N[C@H](CO)C(=O)O [D-Serine, reference compound]						Cerebellar cGMP [1]: 17.5 ± 2.4 pmol/mg protein
O=C(O)c1cc(O)c2ccc(Cl)cc2n1 [7-chlorokynurenic acid]				NMDA antagonist	blocking effect can be reversed by glycine	
O=C(O)c1cc(O)c2ccccc2n1 [kynurenic acid, 2-carboxy-4-hydroxyquinoline]				known NMDA antagonist	can be reversed by the presence of glycine	
CC(C)OC(=O)Cc1c(C(=O)O)[nH]c2cc(Cl)ccc12 [Compound No. 35, 2-propyl 2-carboxy-6-chloro-3-indoleacetate]	3900	4.5 ± 0.5	68.5 ± 13.5			activity at 300 µM ([6]; read-out: Burst duration): 19.2%; activity at 300 µM ([6]; read-out: Primary population spike amplitude): 82.1%; activity at 300 µM ([6]; read-out: Spontaneous activity): 0%; activity at 300 µM ([6]; read-out: Sum of additional population spike amplitude): 35.6%

More lines, main results first:

Ki [2] [nM]	IC50 [4, 7] [µM]	IC50 ([4]; IC50, 10 μM Gly, 10 μM glycine) [µM]	Structure (SMILES)	NMDA antagonist activity [5]	reversal of NMDA antagonist activity / blocking effect by glycine [5]	other results
470	1.6 ± 0.01	16.1 ± 1.4	CCOC(=O)Cc1c(C(=O)O)[nH]c2cc(Cl)ccc12 [compound 31, ethyl 2-carboxy-6-chloro-3-indoleacetate]			Ki [3]: > 100 µM
1200	3.4 ± 0.9		NC(=O)Cc1c(C(=O)O)[nH]c2cc(Cl)ccc12 [compound 37, 2-carboxy-6-chloro-3-indoleacetamide]			
